{"source": "ChEMBL document CHEMBL5653631", "about": "“A Potent and Selective ULK1 Inhibitor Suppresses Autophagy and Sensitizes Cancer Cells to Nutrient Stress” (iScience, 2018)", "key": {"[1]": {"molecular_target": "T1, Serine/threonine-protein kinase NLK (Homo sapiens) (UniProt Q9UBE8)", "T1 sequence (whole entry)": "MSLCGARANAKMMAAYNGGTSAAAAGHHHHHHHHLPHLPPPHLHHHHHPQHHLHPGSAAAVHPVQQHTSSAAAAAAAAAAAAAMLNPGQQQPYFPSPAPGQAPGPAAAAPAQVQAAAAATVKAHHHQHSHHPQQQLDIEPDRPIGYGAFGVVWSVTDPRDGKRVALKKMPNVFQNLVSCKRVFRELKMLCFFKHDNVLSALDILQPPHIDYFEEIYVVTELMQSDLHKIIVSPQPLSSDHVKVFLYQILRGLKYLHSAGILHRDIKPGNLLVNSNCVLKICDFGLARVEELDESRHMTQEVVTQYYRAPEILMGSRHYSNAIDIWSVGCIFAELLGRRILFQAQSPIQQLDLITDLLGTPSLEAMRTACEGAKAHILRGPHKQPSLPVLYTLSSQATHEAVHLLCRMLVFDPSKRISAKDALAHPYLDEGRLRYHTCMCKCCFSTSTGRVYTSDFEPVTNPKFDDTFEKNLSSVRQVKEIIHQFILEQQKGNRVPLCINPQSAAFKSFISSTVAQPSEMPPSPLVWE", "assay": "Inhibition of human recombinant NLK at 500 nM in presence of ATP by radiometric assay relative to control"}, "[2]": {"molecular_target": "Serine/threonine-protein kinase PAK 3 (Homo sapiens) (UniProt O75914)", "assay": "Inhibition of human recombinant PAK3 at 500 nM related to control ULK1"}, "[3]": {"molecular_target": "Insulin-like growth factor 1 receptor (Homo sapiens) (UniProt P08069)", "sequence (P08069 31-736 limits assumed)": "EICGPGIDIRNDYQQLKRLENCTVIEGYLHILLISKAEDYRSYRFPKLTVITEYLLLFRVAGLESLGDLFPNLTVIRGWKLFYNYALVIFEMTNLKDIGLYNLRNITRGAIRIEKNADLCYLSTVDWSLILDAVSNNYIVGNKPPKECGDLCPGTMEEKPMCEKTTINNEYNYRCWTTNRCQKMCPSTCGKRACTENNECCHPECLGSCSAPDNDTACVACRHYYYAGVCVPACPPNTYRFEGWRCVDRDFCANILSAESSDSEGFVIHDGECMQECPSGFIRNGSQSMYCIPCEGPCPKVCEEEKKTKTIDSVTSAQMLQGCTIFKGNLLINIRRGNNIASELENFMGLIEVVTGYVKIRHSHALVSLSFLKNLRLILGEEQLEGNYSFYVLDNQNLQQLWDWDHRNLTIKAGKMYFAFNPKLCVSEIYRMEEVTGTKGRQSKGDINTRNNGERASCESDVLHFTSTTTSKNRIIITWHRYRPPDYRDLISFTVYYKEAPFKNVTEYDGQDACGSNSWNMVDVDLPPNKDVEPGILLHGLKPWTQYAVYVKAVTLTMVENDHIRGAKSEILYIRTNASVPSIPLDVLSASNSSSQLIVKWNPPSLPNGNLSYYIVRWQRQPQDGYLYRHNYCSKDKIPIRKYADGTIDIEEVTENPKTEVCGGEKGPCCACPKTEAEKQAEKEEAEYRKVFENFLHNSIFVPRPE", "sequence (P08069 741-1367 limits assumed)": "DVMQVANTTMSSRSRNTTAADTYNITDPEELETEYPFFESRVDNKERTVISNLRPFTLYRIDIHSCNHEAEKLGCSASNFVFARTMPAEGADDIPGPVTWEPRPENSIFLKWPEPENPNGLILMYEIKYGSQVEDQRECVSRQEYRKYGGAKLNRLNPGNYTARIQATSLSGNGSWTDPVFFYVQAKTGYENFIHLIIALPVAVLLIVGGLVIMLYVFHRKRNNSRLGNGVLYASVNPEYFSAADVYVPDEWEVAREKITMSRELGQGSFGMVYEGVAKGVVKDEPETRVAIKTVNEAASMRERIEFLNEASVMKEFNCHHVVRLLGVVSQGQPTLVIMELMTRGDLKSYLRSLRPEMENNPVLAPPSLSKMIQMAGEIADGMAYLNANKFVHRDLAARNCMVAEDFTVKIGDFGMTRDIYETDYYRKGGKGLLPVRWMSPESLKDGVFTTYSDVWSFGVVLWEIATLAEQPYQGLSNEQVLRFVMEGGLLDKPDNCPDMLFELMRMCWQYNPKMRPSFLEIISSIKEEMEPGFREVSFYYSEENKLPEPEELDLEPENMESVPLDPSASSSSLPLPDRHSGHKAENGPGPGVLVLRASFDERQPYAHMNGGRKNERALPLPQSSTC", "assay": "Inhibition of human recombinant IGF1R at 500 nM in presence of ATP by radiometric assay relative to control"}, "[4]": {"molecular_target": "DNA-PK/Ku70/Ku85 (Homo sapiens) (UniProt P78527+P12956+P13010)", "assay": "Inhibition of human recombinant DNAPK at 500 nM in presence of ATP by radiometric assay relative to control", "format": "protein-complex assay"}, "[5]": {"molecular_target": "Casein kinase I isoform gamma-3 (Homo sapiens) (UniProt Q9Y6M4)", "sequence (Q9Y6M4 whole entry, looked up, canonical isoform)": "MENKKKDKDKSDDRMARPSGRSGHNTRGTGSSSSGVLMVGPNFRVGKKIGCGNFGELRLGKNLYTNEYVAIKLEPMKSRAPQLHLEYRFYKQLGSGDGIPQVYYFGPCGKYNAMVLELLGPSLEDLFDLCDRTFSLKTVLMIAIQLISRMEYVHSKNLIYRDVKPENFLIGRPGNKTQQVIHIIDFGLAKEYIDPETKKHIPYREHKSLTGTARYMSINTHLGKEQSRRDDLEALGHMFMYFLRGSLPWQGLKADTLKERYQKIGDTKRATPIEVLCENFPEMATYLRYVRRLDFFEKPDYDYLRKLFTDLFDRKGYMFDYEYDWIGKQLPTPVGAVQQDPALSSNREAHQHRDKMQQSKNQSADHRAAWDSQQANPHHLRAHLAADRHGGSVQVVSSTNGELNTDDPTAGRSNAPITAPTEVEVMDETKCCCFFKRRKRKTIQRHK", "assay": "Inhibition of human recombinant CK1g3 at 500 nM in presence of ATP by radiometric assay relative to control"}, "[6]": {"molecular_target": "PAS domain-containing serine/threonine-protein kinase (Homo sapiens) (UniProt Q96RG2)", "sequence (Q96RG2 whole entry, the tested form may be a part)": "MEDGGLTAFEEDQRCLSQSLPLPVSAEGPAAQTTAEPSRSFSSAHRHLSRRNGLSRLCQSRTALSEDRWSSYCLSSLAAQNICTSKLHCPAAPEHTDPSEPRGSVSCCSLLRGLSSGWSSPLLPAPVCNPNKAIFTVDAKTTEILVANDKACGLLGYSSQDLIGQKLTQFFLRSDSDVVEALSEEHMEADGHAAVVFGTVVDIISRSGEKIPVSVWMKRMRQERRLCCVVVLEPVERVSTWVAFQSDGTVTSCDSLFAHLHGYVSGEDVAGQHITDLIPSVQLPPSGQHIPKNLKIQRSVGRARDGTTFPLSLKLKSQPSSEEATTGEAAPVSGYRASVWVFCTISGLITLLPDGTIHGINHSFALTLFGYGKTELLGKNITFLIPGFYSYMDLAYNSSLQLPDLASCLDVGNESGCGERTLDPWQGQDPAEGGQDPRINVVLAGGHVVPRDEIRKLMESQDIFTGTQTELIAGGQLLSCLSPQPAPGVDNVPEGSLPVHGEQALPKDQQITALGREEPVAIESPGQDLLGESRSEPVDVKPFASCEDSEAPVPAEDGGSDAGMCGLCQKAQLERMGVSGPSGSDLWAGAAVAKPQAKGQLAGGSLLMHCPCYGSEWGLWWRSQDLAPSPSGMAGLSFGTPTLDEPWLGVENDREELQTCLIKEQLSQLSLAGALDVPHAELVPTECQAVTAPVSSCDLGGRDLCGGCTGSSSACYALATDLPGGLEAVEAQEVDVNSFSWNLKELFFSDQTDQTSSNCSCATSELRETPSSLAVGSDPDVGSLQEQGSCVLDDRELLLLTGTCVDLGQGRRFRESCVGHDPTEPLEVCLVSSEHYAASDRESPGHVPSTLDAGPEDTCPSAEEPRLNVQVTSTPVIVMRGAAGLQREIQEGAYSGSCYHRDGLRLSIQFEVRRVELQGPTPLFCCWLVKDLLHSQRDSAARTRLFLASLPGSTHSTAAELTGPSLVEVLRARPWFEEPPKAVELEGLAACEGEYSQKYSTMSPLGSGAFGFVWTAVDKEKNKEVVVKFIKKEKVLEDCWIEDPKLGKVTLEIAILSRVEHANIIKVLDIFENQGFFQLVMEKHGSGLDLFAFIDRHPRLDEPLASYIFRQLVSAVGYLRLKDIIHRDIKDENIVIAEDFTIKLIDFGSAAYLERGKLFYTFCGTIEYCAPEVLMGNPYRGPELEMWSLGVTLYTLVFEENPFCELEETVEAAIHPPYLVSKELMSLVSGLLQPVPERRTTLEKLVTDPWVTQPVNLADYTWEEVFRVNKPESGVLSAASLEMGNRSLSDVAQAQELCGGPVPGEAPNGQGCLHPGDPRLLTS", "assay": "Inhibition of human recombinant PASK at 15 nM related to control ULK1"}, "[7]": {"molecular_target": "T2, Eukaryotic translation initiation factor 2-alpha kinase 3 (Homo sapiens) (UniProt Q9NZJ5)", "T2 sequence (whole entry)": "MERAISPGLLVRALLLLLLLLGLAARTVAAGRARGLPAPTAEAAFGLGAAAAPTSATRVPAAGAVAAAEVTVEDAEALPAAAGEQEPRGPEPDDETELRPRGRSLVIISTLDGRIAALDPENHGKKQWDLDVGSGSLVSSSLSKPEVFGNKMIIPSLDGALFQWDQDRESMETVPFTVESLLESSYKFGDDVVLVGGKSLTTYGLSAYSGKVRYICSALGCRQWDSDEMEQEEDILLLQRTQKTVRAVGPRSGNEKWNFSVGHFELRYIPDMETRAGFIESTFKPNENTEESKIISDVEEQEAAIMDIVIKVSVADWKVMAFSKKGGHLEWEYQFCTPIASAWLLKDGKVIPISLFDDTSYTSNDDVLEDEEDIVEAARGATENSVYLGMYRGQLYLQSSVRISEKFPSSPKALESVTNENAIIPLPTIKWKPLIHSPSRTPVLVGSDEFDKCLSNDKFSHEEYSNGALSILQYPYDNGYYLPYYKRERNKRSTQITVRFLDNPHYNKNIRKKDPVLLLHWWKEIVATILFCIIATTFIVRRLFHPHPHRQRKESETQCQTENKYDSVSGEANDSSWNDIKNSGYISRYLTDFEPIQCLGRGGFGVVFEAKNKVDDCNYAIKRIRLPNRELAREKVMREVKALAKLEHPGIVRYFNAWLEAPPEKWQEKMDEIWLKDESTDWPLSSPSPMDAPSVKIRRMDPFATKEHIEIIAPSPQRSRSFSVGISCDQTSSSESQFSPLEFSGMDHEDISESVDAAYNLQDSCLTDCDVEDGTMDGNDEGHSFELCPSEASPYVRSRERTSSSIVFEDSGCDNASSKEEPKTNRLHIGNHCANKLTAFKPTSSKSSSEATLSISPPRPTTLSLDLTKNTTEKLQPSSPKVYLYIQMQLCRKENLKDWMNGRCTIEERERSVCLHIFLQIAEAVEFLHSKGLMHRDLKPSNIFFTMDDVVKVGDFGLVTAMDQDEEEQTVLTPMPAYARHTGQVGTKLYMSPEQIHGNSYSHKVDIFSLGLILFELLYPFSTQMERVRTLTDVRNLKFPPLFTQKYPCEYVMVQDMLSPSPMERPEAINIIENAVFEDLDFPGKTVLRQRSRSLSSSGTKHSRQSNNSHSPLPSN", "assay": "Inhibition of human recombinant PEK at 40 nM related to control ULK1"}, "[8]": {"molecular_target": "Serine/threonine-protein kinase WNK3 (Homo sapiens) (UniProt Q9BYP7)", "sequence (Q9BYP7 whole entry)": "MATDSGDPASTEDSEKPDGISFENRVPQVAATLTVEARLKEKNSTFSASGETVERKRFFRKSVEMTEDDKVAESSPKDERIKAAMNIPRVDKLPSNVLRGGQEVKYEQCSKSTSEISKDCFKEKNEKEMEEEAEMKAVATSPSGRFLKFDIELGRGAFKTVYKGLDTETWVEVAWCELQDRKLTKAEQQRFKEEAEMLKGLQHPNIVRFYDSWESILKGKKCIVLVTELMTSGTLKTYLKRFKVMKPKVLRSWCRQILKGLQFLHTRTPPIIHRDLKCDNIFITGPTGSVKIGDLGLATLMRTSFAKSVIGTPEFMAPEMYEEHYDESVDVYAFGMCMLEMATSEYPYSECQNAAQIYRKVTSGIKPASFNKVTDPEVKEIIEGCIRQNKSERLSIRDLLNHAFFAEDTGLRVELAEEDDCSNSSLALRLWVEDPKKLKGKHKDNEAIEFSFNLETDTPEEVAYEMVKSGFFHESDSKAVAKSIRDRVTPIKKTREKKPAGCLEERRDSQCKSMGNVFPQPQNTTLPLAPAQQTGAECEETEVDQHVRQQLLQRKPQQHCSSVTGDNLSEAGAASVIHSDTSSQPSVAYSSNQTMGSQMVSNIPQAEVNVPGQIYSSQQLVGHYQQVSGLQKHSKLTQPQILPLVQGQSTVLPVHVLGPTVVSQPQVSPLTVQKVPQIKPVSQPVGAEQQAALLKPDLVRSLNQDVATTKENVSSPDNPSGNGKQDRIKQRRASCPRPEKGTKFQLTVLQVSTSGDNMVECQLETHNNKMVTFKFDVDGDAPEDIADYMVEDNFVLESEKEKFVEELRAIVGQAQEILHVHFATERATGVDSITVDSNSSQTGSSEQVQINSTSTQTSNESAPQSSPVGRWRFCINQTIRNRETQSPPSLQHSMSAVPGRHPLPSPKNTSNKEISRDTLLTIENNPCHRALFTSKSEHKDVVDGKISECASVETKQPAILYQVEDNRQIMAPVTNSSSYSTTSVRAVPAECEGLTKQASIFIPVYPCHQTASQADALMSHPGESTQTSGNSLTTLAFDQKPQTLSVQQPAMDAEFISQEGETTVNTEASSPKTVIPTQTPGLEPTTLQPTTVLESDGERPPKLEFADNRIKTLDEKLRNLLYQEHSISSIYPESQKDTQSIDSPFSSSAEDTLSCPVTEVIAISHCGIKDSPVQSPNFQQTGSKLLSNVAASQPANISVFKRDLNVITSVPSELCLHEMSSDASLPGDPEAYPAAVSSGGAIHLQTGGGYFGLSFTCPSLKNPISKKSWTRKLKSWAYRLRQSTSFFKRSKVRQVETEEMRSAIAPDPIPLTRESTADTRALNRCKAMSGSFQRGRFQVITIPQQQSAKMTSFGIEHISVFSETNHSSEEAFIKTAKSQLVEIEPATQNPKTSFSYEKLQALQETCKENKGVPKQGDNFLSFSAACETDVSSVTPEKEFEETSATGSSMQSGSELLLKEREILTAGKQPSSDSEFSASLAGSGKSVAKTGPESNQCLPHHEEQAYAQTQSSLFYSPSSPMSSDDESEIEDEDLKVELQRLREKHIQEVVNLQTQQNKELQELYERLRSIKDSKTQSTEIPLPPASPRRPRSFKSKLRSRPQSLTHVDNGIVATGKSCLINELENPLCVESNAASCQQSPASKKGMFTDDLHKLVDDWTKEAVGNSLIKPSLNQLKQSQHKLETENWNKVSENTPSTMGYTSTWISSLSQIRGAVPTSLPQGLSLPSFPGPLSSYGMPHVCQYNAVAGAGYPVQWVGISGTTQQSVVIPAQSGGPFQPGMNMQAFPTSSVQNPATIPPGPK", "assay": "Inhibition of human recombinant Wnk3 at 40 nM related to control ULK1"}}}
{"smiles": "CNC(=O)c1ccccc1Oc1nc(Nc2cc(OC)c(OC)c(OC)c2)ncc1Br", "values": [{"measurement": "inhibition", "setting": "[1]", "result": 4, "unit": "%"}, {"measurement": "fold change (FC)", "setting": "[2]", "result": 0.12}, {"measurement": "inhibition", "setting": "[3]", "result": 3, "unit": "%"}, {"measurement": "inhibition", "setting": "[4]", "result": 12, "unit": "%"}, {"measurement": "inhibition", "setting": "[5]", "result": 0, "unit": "%"}]}
{"smiles": "CC(C)[C@H](NC(=O)c1cc(-c2cnn3cc(-c4ccc(OCCN5CCCCC5)cc4)cnc23)cs1)C(F)(F)F", "values": [{"measurement": "fold change (FC)", "setting": "[6]", "result": 0}]}
{"smiles": "O=C(N[C@@H](C1CC1)C(F)(F)F)c1cc(-c2cnn3cc(-c4ccc(F)cc4)cnc23)cs1", "values": [{"measurement": "fold change (FC)", "setting": "[7]", "result": 0}, {"measurement": "fold change (FC)", "setting": "[8]", "result": 0.04}]}
